This note sets out measurements from patent publication US5989874A, “Humectant, antistatic agent, dispersant and film-forming agent having polysaccharide as active principle, preparation process of polysaccharides, and Kliebsiella ocytoca TNM-3 strain” (Tayca Corporation, priority 1995, dated 1999).

Data set [1] relates to skin. As to conditions: 4% (w/v) aqueous solution.
Data set [2] deals with mushroom-derived tyrosinase. The experiment in a line: Tyrosinase-inhibitory activity. In kind it is biochemical. As to conditions: relative values to kojic acid = 1.0; 0.1 ml of 300 μg/ml solution; L-tyrosine; 25° C., 10 minutes, pH 6.5. On the procedure: Absorbance at 475 nm was measured by an ultraviolet visible spectrophotometer. The above process was repeated without adding the polysaccharide, and the absorbance was measured in the similar way and given as blank. The above process was further carried out using the polysaccharide obtained in Example 3. […] The tyrosinase inhibition rate was calculated from the following equation. […] Tyrosinase inhibition rate=(OD2 -OD1)/OD2 ×100 wherein OD1 is absorbance at 475 nm in case the specimen was added, and OD2 is absorbance at 475 nm in case no specimen was added (blank).

A short description of data set [3]: Moisture retention in high-humidity environment. In kind it is physicochemical. The note with it: relative humidity 92.9%, 30° C., 3 days. On the procedure:
The above operations were carried out at a constant temperature of 30° C.

A short description of data set [4]: Moisture retainability in low-humidity environment. The note with it: relative humidity 20%, 20° C., 3 days. In kind it is physicochemical.
Protocol: The above operations were carried out at a constant temperature of 20° C.
The sample weight was measured periodically and he moisture retention percentagewas calculated from the following equation.
Moisture retention percentage(%)=(A-B)/B×100 (wherein A is sample weight when it became constant, and B is dry sample weight).

Compound `CCCCCCCCCCCCOS(=O)(=O)[O-].[Na+]` [sodium lauryl sulfate] returned a primary irritation index in data set [1] of 4.0.

`O=c1cc(CO)occ1O` [Kojic acid, kojic acid]: the Tyrosinase inhibition rate in data set [2] worked out at 1.0.

As to `OCC(O)CO` [Glycerol, glycerol], the “Material retention percentage (moisture retention percentage)” value in data set [3] came to 139.1%. For the same compound, the Moisture retention in data set [4] turned out to be 6.9%.
